In ChEMBL document CHEMBL6092180 (Eur J Med Chem, 2024):
Values after ≈ are worked out from the molar mass of the structure shown.

Assays:
Type in all cases: functional
Candida tropicalis = assay: Antifungal activity against Candida tropicalis GIM 2.183 assessed as inhibition of fungal growth by CLSI M27-A3 guidelines based method
Candida albicans [1] = assay: Antifungal activity against Candida albicans GIM 2.194 assessed as inhibition of fungal growth by CLSI M27-A3 guidelines based method
Candida parapsilosis = assay: Antifungal activity against Candida parapsilosis GIM 2.190 assessed as inhibition of fungal growth by CLSI M27-A3 guidelines based method; conditions: Lodderomyces parapsilosis
Nakaseomyces glabratus = assay: Antifungal activity against Candida glabrata assessed as inhibition of fungal growth by CLSI M27-A3 guidelines based method
Cryptococcus neoformans = assay: Antifungal activity against Cryptococcus neoformans CGMCC 2.3161 assessed as inhibition of fungal growth by CLSI M27-A3 guidelines based method
Pichia kudriavzevii = assay: Antifungal activity against Candida krusei GIM 2.1 assessed as inhibition of fungal growth by CLSI M27-A3 guidelines based method
Candida albicans [2] = assay: Antifungal activity against Candida albicans SC5314 assessed as inhibition of fungal growth by CLSI M27-A3 guidelines based method
Candida albicans [3] = assay: Antifungal activity against fluconazole-resistant Candida albicans CaR assessed as inhibition of fungal growth by CLSI M27-A3 guidelines based method
Aspergillus fumigatus = assay: Antifungal activity against Aspergillus fumigatus cgmcc 3.7795 assessed as inhibition of fungal growth by CLSI M27-A3 guidelines based method
Candida albicans [4] = assay: Antifungal activity against fluconazole and iodiconazole resistant Candida albicans clinical isolate 17# assessed as inhibition of fungal growth by CLSI M27-A3 guidelines based method
Candida albicans [5] = assay: Antifungal activity against fluconazole-resistant Candida albicans clinical isolate 100 assessed as inhibition of fungal growth by CLSI M27-A3 guidelines based method
Candida albicans [6] = assay: Antifungal activity against fluconazole-resistant Candida albicans clinical isolate 901 assessed as inhibition of fungal growth by CLSI M27-A3 guidelines based method
Candida albicans [7] = assay: Antifungal activity against fluconazole-resistant Candida albicans clinical isolate 103 assessed as inhibition of fungal growth by CLSI M27-A3 guidelines based method
Candida albicans [8] = assay: Antifungal activity against fluconazole-resistant Candida albicans clinical isolate 632 assessed as inhibition of fungal growth by CLSI M27-A3 guidelines based method
Candida albicans [9] = assay: Antifungal activity against fluconazole-resistant Candida albicans clinical isolate 311 assessed as inhibition of fungal growth by CLSI M27-A3 guidelines based method
Candida albicans [10] = assay: Antifungal activity against fluconazole-resistant Candida albicans clinical isolate 904 assessed as inhibition of fungal growth by CLSI M27-A3 guidelines based method

Row | MIC80 (Candida tropicalis) [µg/mL] | MIC80 (Candida albicans [1]) [µg/mL] | MIC80 (Candida parapsilosis) [µg/mL] | MIC80 (Nakaseomyces glabratus) [µg/mL] | MIC80 (Cryptococcus neoformans) [µg/mL] | MIC80 (Pichia kudriavzevii) [µg/mL] | MIC80 (Candida albicans [2]) [µg/mL] | SMILES | MIC80 (Candida albicans [3]) [µg/mL] | MIC80 (Aspergillus fumigatus) [µg/mL] | MIC80 (Candida albicans [4]) [µg/mL] | MIC80 (Candida albicans [5]) [µg/mL] | MIC80 (Candida albicans [6]) [µg/mL] | MIC80 (Candida albicans [7]) [µg/mL] | MIC80 (Candida albicans [8]) [µg/mL] | MIC80 (Candida albicans [9]) [µg/mL] | MIC80 (Candida albicans [10]) [µg/mL]
1 | 0.025 (≈ 0.0529 µM) | 0.013 (≈ 0.0275 µM) | 0.013 (≈ 0.0275 µM) | 0.4 (≈ 0.846 µM) | 0.025 (≈ 0.0529 µM) | 0.8 (≈ 1.69 µM) | 0.013 (≈ 0.0275 µM) | Cc1cccc(C#Cc2ccc(CN(C)CC(O)(Cn3cncn3)c3ccc(F)cc3F)cc2)c1 (configuration not stated) |  |  |  |  |  |  |  |  | 
2 | 0.013 (≈ 0.0266 µM) | 0.013 (≈ 0.0266 µM) | 0.013 (≈ 0.0266 µM) | 0.8 (≈ 1.64 µM) | 0.05 (≈ 0.102 µM) | 0.2 (≈ 0.409 µM) | 0.013 (≈ 0.0266 µM) | COc1ccc(C#Cc2ccc(CN(C)CC(O)(Cn3cncn3)c3ccc(F)cc3F)cc2)cc1 (configuration not stated) |  |  |  |  |  |  |  |  | 
3 | 0.006 (≈ 0.0126 µM) | 0.013 (≈ 0.0273 µM) | 0.006 (≈ 0.0126 µM) | 0.05 (≈ 0.105 µM) | 0.006 (≈ 0.0126 µM) | 0.01 (≈ 0.021 µM) | 0.006 (≈ 0.0126 µM) | CN(Cc1ccc(C#Cc2cccc(F)c2)cc1)CC(O)(Cn1cncn1)c1ccc(F)cc1F (configuration not stated) |  |  |  |  |  |  |  |  | 
4 | 0.013 (≈ 0.0283 µM) | 0.006 (≈ 0.0131 µM) | 0.013 (≈ 0.0283 µM) | 0.4 (≈ 0.871 µM) | 0.2 (≈ 0.435 µM) | 0.2 (≈ 0.435 µM) | 0.013 (≈ 0.0283 µM) | CN(Cc1ccc(C#Cc2ccncc2)cc1)CC(O)(Cn1cncn1)c1ccc(F)cc1F (configuration not stated) |  |  |  |  |  |  |  |  | 
5 | 0.013 (≈ 0.0264 µM) | 0.006 (≈ 0.0122 µM) | 0.006 (≈ 0.0122 µM) | 0.2 (≈ 0.406 µM) | 0.013 (≈ 0.0264 µM) | 0.01 (≈ 0.0203 µM) | 0.013 (≈ 0.0264 µM) | CN(Cc1ccc(C#Cc2cccc(Cl)c2)cc1)CC(O)(Cn1cncn1)c1ccc(F)cc1F (configuration not stated) |  |  |  |  |  |  |  |  | 
6 | 0.006 (≈ 0.0121 µM) | 0.006 (≈ 0.0121 µM) | 0.006 (≈ 0.0121 µM) | 0.03 (≈ 0.0607 µM) | 0.013 (≈ 0.0263 µM) | 0.01 (≈ 0.0202 µM) | 0.006 (≈ 0.0121 µM) | CN(Cc1ccc(C#Cc2ccc(F)c(F)c2)cc1)CC(O)(Cn1cncn1)c1ccc(F)cc1F (configuration not stated) |  |  |  |  |  |  |  |  | 
7 | 0.006 (≈ 0.0117 µM) | 0.006 (≈ 0.0117 µM) | 0.006 (≈ 0.0117 µM) | 0.01 (≈ 0.0196 µM) | 0.013 (≈ 0.0254 µM) | 0.03 (≈ 0.0587 µM) | 0.006 (≈ 0.0117 µM) | CN(Cc1ccc(C#Cc2ccc(Cl)c(F)c2)cc1)CC(O)(Cn1cncn1)c1ccc(F)cc1F (configuration not stated) |  |  |  |  |  |  |  |  | 

More lines, now with the values behind:

Row | SMILES | MIC80 (Candida tropicalis) [µg/mL] | MIC80 (Candida albicans [1]) [µg/mL] | MIC80 (Candida parapsilosis) [µg/mL] | MIC80 (Nakaseomyces glabratus) [µg/mL] | MIC80 (Cryptococcus neoformans) [µg/mL] | MIC80 (Pichia kudriavzevii) [µg/mL] | MIC80 (Candida albicans [2]) [µg/mL] | MIC80 (Candida albicans [3]) [µg/mL] | MIC80 (Aspergillus fumigatus) [µg/mL] | MIC80 (Candida albicans [4]) [µg/mL] | MIC80 (Candida albicans [5]) [µg/mL] | MIC80 (Candida albicans [6]) [µg/mL] | MIC80 (Candida albicans [7]) [µg/mL] | MIC80 (Candida albicans [8]) [µg/mL] | MIC80 (Candida albicans [9]) [µg/mL] | MIC80 (Candida albicans [10]) [µg/mL]
8 | CN(Cc1ccc(C#Cc2ccc(-c3ccccc3)cc2)cc1)CC(O)(Cn1cncn1)c1ccc(F)cc1F (configuration not stated) | 0.05 (≈ 0.0935 µM) | 0.013 (≈ 0.0243 µM) | 0.05 (≈ 0.0935 µM) | 0.4 (≈ 0.748 µM) | 0.05 (≈ 0.0935 µM) | 0.2 (≈ 0.374 µM) | 0.05 (≈ 0.0935 µM) |  |  |  |  |  |  |  |  | 
9 | C[C@@H](N(C)Cc1ccc(C#Cc2ccc(Br)cc2)cc1)[C@](O)(Cn1cncn1)c1ccc(F)cc1F | 0.006 (≈ 0.0109 µM) | 0.025 (≈ 0.0453 µM) | 0.006 (≈ 0.0109 µM) | 0.05 (≈ 0.0907 µM) | 0.025 (≈ 0.0453 µM) | 0.03 (≈ 0.0544 µM) | 0.025 (≈ 0.0453 µM) | 0.25 (≈ 0.453 µM) | 0.1 (≈ 0.181 µM) | 0.5 (≈ 0.907 µM) | 8 (≈ 14.5 µM) | 8 (≈ 14.5 µM) | 8 (≈ 14.5 µM) | 8 (≈ 14.5 µM) | > 64 | 16 (≈ 29 µM)
10 | CN(Cc1ccc(C#Cc2ccccc2Br)cc1)CC(O)(Cn1cncn1)c1ccc(F)cc1F (configuration not stated) | 0.013 (≈ 0.0242 µM) | 0.006 (≈ 0.0112 µM) | 0.006 (≈ 0.0112 µM) | 0.4 (≈ 0.744 µM) | 0.013 (≈ 0.0242 µM) | 0.03 (≈ 0.0558 µM) | 0.013 (≈ 0.0242 µM) |  |  |  |  |  |  |  |  | 
11 | CN(Cc1ccc(C#Cc2cc(F)c(F)cc2F)cc1)CC(O)(Cn1cncn1)c1ccc(F)cc1F (configuration not stated) | 0.006 (≈ 0.0117 µM) | 0.006 (≈ 0.0117 µM) | 0.006 (≈ 0.0117 µM) | 0.01 (≈ 0.0195 µM) | 0.013 (≈ 0.0254 µM) | 0.03 (≈ 0.0585 µM) | 0.006 (≈ 0.0117 µM) |  |  |  |  |  |  |  |  | 
12 | C[C@@H](N(C)Cc1ccc(C#Cc2ccc(Cl)cc2)cc1)[C@](O)(Cn1cncn1)c1ccc(F)cc1F | 0.006 (≈ 0.0118 µM) | 0.025 (≈ 0.0493 µM) | 0.006 (≈ 0.0118 µM) | 0.03 (≈ 0.0592 µM) | 0.025 (≈ 0.0493 µM) | 0.01 (≈ 0.0197 µM) | 0.025 (≈ 0.0493 µM) | 0.25 (≈ 0.493 µM) | 0.1 (≈ 0.197 µM) | 0.5 (≈ 0.986 µM) | 8 (≈ 15.8 µM) | 8 (≈ 15.8 µM) | 16 (≈ 31.6 µM) | 8 (≈ 15.8 µM) | 32 (≈ 63.1 µM) | 16 (≈ 31.6 µM)
